Test results from US9618513B2, “Compositions and methods for detecting and treating colorectal cancer” (The Regents of the University of Michigan, priority 2014, dated 2017).

Tests used:
Type in all cases: cell-based, human
[1] = tested on: primary colon cancer cells; test: Colon cancer sphere assay, primary colon cancer cells; details: in the presence of IL-22, inhibitor 10 uM
Procedure: (A, B) IL-22 is expressed by immune cells in colon cancer tissues. Different cell populations were sorted from colon cancer tissues and IL-22 expression was measured by real time PCR. (5-10 donors, P<0.05). (C) IL-22 is spontaneously released by different immune cell populations in colon cancer tissues. Different CD45^+ immune subsets (10^6/ml) were sorted from colon cancer and blood, and cultured for 12 hours. IL-22 was detected via ELISA. (n=5, *P<0.05). (D, E) IL-22 is expressed by activated CD4^+ T cells in colon cancer tissues. CD45^+ subsets (10^6/ml) were sorted from colon cancer and blood, and were activated with anti-CD3 and anti-CD28 for 2 days. IL-22 was detected with ELISA (D) or intracellular staining (E). (n=5, *P<0.05). […] IL-22 mRNA was detected by real time PCR (F) and protein by ELISA (G). […] IL-22 expression was quantified with real-time PCR in the migrated and non-migrated cells. Results are expressed as the mean relative expression (H). The phenotype of migrated cells, non-migrated cells and control (before migration) was analyzed by FACS (I). […] The mRNA of stem cell core genes was detected by real-time PCR after 6 hours (K) and ALDH activity was detected by FACS after 48 hours (L). […]
(A) IL-22 induces H3K79me2 in colon cancer cells. […] Total histone modifications were analyzed by western blot. […] Sphere numbers were recorded. […] DOT1L complex gene expression was quantified by real-time PCR. […]

[2] = tested on: EZH2, SUZ12, EED, CBX8; test: PcG / PRC2 component expression (real-time PCR, western blot)
Procedure: A, C. Cell proliferation was analyzed using H^3 Thymidine Incorporation. B. The level of total H3K79m2 and H3K27me3 was measured by Western Blot. D. PcG proteins of EZH2, EED, SUZ12 was increased with IL-22(20 ng/ml) treatment. E. EZH2, SUZ12 and EED was detected by Western Blot after IL-22 treated for 24 h or 48 h. F. EZH2 inhibitor DZNep reduced cell proliferation. G.H. The efficiency of EZH2 and SUZ12 knock down was tested by Western Blot. I.J. Cell proliferation was analyzed using H^3 Thymidine Incorporation after knock down of EZH2 and SUZ12. K.L. Relative expression of cyclin-dependent kinase inhibitors (p16 and p18) in shEZH2, shSUZ12 and Dznep treated cells after IL-22 treatment. M. The level of H3K27me3 in the promoter of p16 and p18 was analyzed by ChIP assay.
A. The protein level of phosphorylated STAT3, STAT1 and STATS were activated by IL-22. B. The effect of STAT3 knock down. C. The effect of IL-22 on cell proliferation was analyzed using H^3 Thymidine Incorporation in Stat3 knock down cells. D. Knock down of STAT3 reduced the expression of EZH2 and SUZ12. E. Based on the ENCODE STAT3-ChIP-Seq data base, STAT3 occupancy on the promoter areas of SUZ12 and EED is shown. F. SUZ12/EED DNA was detected by ChIP assay using an antibody against STAT3, c-fos was used as a positive control.
The mRNAs were quantified by real-time RT-PCR. SYBR Green Master Mix was used to detect fluorescence. Relative expression was calculated according to the Ct value with normalization to GAPDH.
Western Blot assay was performed with specific antibodies against human Stat3, phosphorylate Stat3 (Cell Signaling), Sox2, SUZ12(Santa Cruz biotechnology), EZH2 (Abcam), H3K27me3 and H3K79me2 (Millipore).

[3] = tested on: DOT1L, AFF4, MLLT10; test: DOT1L complex gene expression by real-time PCR; details: DLD-1 and primary colon cancer cells, IL-22 12 hours
Procedure: (A) IL-22 induces H3K79me2 in colon cancer cells. Colon cancer cells were treated with IL-22 for 48 hours. Total histone modifications were analyzed by western blot. (B, C) DOT1L inhibitor, EPZ004777 suppresses colon cancer sphere formation induced by IL-22. Colon cancer sphere assay was performed in the presence of IL-22 and EPZ004777. Sphere numbers were recorded. DLD-1 cells (B), primary colon cancer cells (C). (n=5, P<0.05). (D, E) IL-22 stimulates DOT1L complex gene expression. Colon cancer cells were cultured for 12 hours with IL-22. DOT1L complex gene expression was quantified by real-time PCR. DLD-1 cells (D), primary colon cancer cells (E). (n=3, P<0.05). (F) DOT1L knock down results in reduced colon cancer sphere formation induced by IL-22. Colon cancer sphere assay was performed with colon cancer cells expressing sh-DOT1L or vector in the presence of IL-22. Sphere numbers were recorded. (n=5, P<0.05). (G-I), IL-22 causes higher occupancy of H3K79me2 on core stem cell gene promoters. H3K79me2-ChIP assay was performed in DLD-1 colon cancer cells cultured with IL-22. One of 3 experiments is shown. […]
The mRNA was quantified by real-time RT-PCR. […] SYBR Green Master Mix was used to detect fluorescence. Relative expression was calculated according to the Ct value with normalization to GAPDH.

Compound	sphere formation induced by IL-22 [1]	protein level of EZH2 and SUZ12 ([2]; FIG. 19D)	CBX8 expression ([2]; IL-22 20 ng/ml)	mRNA expression level of EED ([2]; IL-22 20 ng/ml)	mRNA expression level of SUZ12 ([2]; IL-22 20 ng/ml)	EED and SUZ12 expression (western blotting) ([2]; IL-22 24 h or 48 h)	EZH2 expression (western blotting) ([2]; IL-22 24 h or 48 h)	expression of DOT1L, AFF4 [3]
CC(C)N(CCCNC(=O)Nc1ccc(C(C)(C)C)cc1)C[C@H]1O[C@@H](n2ccc3c(N)ncnc32)[C@H](O)[C@@H]1O [EPZ004777]	suppressed	–	–	–	–	–	–	–
IL-22: recombinant IL-22 (R&D systems), cytokine interleukin-22	–	up regulate	increased	increased to a lesser extent	significantly increase	increased to a lesser extent	increased	consistently promoted
